Experimental data reported in patent US10512654B2, “Pharmaceutical composition including dutasteride and capsule formulation comprising the same” (YUYU PHARMA, INC., priority 2015, dated 2019).
In brackets after ≈: the same amount, converted by molar mass.

Columns and labels:
Type in all cases: physicochemical
[1] = Solubility of dutasteride in oil (Test Example 1); settings: for solubility at 24 h: oil or lipid, thermodynamic from solid
Description: In order to measure the solubility of dutasteride in oil, the solubility of dutasteride in soybean oil, castor oil, propylene glycol dicaprylate, propylene glycol dicaprate and propylene glycol monolaurate was measured. In a 10 mL vial, a magnetic bar was placed. After 3 mL of the oil was added thereto, approximately 100 mg of dutasteride was added thereto while stirring under a room temperature (25° C.) condition, and the resultant mixture was stirred with 500 rpm or higher. After stirring for 24 hours, 1 mL of the resultant mixture was taken and separated using a centrifuge, and only the supernatant was taken to quantify the amount of dutasteride dissolved in the oil using liquid chromatography.

[2] = Test I on stability of dutasteride depending on oil type (Test Example 2)
Description: As samples used in the comparison test, a sample dissolving 1.0 mg of dutasteride in 10.0 mg of propylene glycol monolaurate and stored in a transparent vial, and a sample dissolving 1.0 mg of dutasteride in 10.0 mg of caprylic/capric acid mono-di-glyceride and stored in a transparent vial were used.

[3] = Stability of dutasteride in mixture of oil and surfactant (Test Example 3); settings: storage condition not given
Description: A stability test on the pharmaceutical composition of the comparative example dissolving 0.5 mg of dutasteride in a mixture of 95 mg of propylene glycol monocaprylate and 5 mg of polyoxyl 35 castor oil and stored in a transparent vial, and the pharmaceutical composition of the example including dutasteride, propylene glycol monolaurate and polyoxyl 35 castor oil was carried out by identifying the generation of degradation products under an accelerated condition (40° C., 75% RH) and a stress condition (50° C. 95% RH). As shown in the following Table 5, it was seen that the mixture of propylene glycol monolaurate and a surfactant secured the stability of dutasteride unlike mixtures of surfactant with other oils such as propylene glycol monocaprylate.

[4] = in Propylene Glycol Monocaprylate + Polyoxyl 35 Castor Oil
[5] = in Propylene Glycol Monolaurate + Polyoxyl 35 Castor Oil

- Solubility of Dutasteride ([1]; in Propylene Glycol Dicaprylate, room temperature (25° C.), stirring for 24 hours): 1130 µg/mL
- solubility at 24 h ([1]; in Propylene Glycol Dicaprate, room temperature (25° C.), stirring for 24 hours): 770 µg/mL (≈ 1.46 mM)
- solubility at 24 h ([1]; in Propylene Glycol Monolaurate, room temperature (25° C.), stirring for 24 hours): 10400 µg/mL (≈ 19.7 mM)
- Solubility in propylene glycol monolaurate compared to other tested oils ([1]; propylene glycol monolaurate vs other tested (general) oils): ≥ 10 times
- Amount of Degradation Products (%) After 4 Weeks ([2]; in Caprylic/Capric Acid Mono-Di-Glyceride, Accelerated Condition (40° C., 75% RH)): 0.94%
- Amount of Degradation Products (%) After 4 Weeks ([2]; in Caprylic/Capric Acid Mono-Di-Glyceride, Stress Condition (50° C., 95% RH)): 1.75%
- Amount of Degradation Products (%) After 4 Weeks ([2]; in Propylene Glycol Monolaurate, Accelerated Condition (40° C., 75% RH)): None
- Amount of Degradation Products (%) After 4 Weeks ([2]; in Propylene Glycol Monolaurate, Accelerated Condition (40° C., 75% RH), listed as dutasteride): not generated
- Amount of Degradation Products (%) After 4 Weeks ([2]; in Propylene Glycol Monolaurate, Stress Condition (50° C., 95% RH)): 0.32%
- Stability of dutasteride in propylene glycol monolaurate compared to caprylic/capric acid mono-di-glyceride ([2]; week 4, accelerated (40° C., 75% RH) and stress condition (50° C., 95% RH), in words): more superior
- Amount of Degradation Products (%) After 3 Weeks [3, 4]: 6.2%
- Amount of Degradation Products (%) After 4 Weeks [3, 4]: 12.1%
- Amount of Degradation Products (%) After 3 Weeks [3, 5]: None
- Amount of Degradation Products (%) After 4 Weeks [3, 5]: None
SMILES: C[C@]12C=CC(=O)N[C@@H]1CC[C@@H]1[C@@H]2CC[C@]2(C)[C@@H](C(=O)Nc3cc(C(F)(F)F)ccc3C(F)(F)F)CC[C@@H]12 [Dutasteride, 17β-N-(2,5-bis(trifluoromethyl))phenylcarbamoyl-4-aza-5α-androst-1-en-3-one]
